Laboratory results taken from patent US6713473B1, “Tricyclic compounds” (Meiji Seika Kaisha, Ltd., priority 1999, dated 2004).

Molecular target: T1, human Y5 receptor (Homo sapiens, UniProt Q15761)
T1 sequence (Q15761 1-445): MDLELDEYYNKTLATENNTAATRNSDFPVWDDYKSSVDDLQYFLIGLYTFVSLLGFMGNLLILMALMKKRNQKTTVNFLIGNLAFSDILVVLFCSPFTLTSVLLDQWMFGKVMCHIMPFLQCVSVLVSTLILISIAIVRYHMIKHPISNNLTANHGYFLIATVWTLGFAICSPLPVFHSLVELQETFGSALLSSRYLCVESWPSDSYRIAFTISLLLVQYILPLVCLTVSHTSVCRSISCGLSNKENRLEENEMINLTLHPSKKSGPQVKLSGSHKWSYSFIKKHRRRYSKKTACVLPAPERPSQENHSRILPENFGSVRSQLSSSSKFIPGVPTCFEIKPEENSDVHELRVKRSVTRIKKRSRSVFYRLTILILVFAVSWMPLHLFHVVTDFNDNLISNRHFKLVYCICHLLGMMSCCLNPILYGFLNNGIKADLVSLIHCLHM
Test: Y5 receptor binding inhibition test
Details: not given

Row | SMILES | % Inhibition ratio (10 μM) [%]
1 | CC(C)n1c2c(c3cc(NC(=O)NCCO)ccc31)CCCC2 [Compound 4-2] | 89
2 | O=C(Nc1ccc2c(c1)c1c(n2CCO)CCCC1)N1CCOCC1 [Compound 8-9] | 101
3 | CCCn1c2c(c3cc(NC(=O)N4CCOCC4)ccc31)CCCC2 [Compound 8-3] | 101
4 | CC(C)n1c2c(c3cc(NC(=O)N(C)CCO)ccc31)CCCC2 [Compound 5-4] | 101

Same assay, conditions: 2 h, read-out: % Inhibition ratio (10 μM)

Row | SMILES | inhibition at 10 µM [%]
5 | CCn1c2ccccc2c2cc(C(=O)NCCCCCNC(=O)c3ccc4[nH]nnc4c3)ccc21 [Compound 1-26] | 82
6 | CCn1c2ccccc2c2cc(NC(=O)CCCCCNS(=O)(=O)c3cccc4cccnc34)ccc21 [Compound 1-7] | 100
7 | CCn1c2ccccc2c2cc(NC(=O)CCCCNS(=O)(=O)c3ccc4ccccc4c3)ccc21 [Compound 1-6] | 93
8 | COCCn1c2c(c3cc(C(=O)NCCOCCNS(=O)(=O)c4cccnc4)ccc31)CCCC2 [Compound 1-58] | 66
9 | CC(C)S(=O)(=O)NCCCCCNC(=O)c1ccc2c(c1)c1c(n2CCOCCO)CCCC1 [Compound 1-60] | 86
10 | CCn1c2ccccc2c2c(O)c(C(=O)NCCCCCNS(=O)(=O)c3cccc4ccccc34)ccc21 [Compound 1-41] | 52
11 | CCn1c2ccccc2c2cc(C(=O)NCCCCCNS(=O)(=O)C(C)C)ccc21 [Compound 1-13] | 109
12 | CC(C)n1c2c(c3cc(NC(=S)N(C)CCc4ccncc4)ccc31)CCCC2 [Compound 12-3] | 97
13 | CC(C)n1c2c(c3cc(NC(=O)N(C)CCc4ccncc4)c(F)cc31)CCCC2 [Compound 12-1] | 100
14 | CCn1c2ccccc2c2cc(C(=O)NCCCCCNS(=O)(=O)c3cccc4c(N(C)C)cccc34)ccc21 [Compound 1-17] | 93
15 | CCn1c2ccccc2c2cc(NC(=O)COC)ccc21 [Compound 3-7] | 95
16 | CCn1c2c(c3cc(NC(C)=O)ccc31)CCCC2 [Compound 3-1] | 88
17 | CCCS(=O)(=O)NCCCCCNC(=O)c1ccc2c(c1)c1ccccc1n2CC [Compound 1-11] | 103
18 | CCn1c2ccccc2c2cc(NS(C)(=O)=O)ccc21 [Compound 3-8] | 73
19 | CCn1c2ccccc2c2cc(C(=O)NCCCCCNS(=O)(=O)c3cccnc3)ccc21 [Compound 1-57] | 89
20 | CCn1c2ccccc2c2cc(C(=O)NCCCCCNC(=O)c3cccnc3)ccc21 [Compound 1-23] | 77
21 | CCn1c2c(c3cc(C(=O)NCCOCCNS(=O)(=O)C(C)C)ccc31)CCCC2 [Compound 1-52] | 88
22 | CCn1c2c(c3cc(NC(C)=O)ccc31)CCC2 [Compound 3-3] | 89
23 | CCn1c2ccccc2c2cc(C(=O)NCCCCCNC(=O)C3CCCCC3)ccc21 [Compound 1-19] | 84

Row | SMILES | inhibition at 10 µM [%]
24 | CCn1c2c(c3c(O)c(C(=O)NCCCCCNS(=O)(=O)c4cccc5ccccc45)ccc31)CCCC2 [Compound 1-44] | 69
25 | CCn1c2ccccc2c2c(OC)c(C(=O)NCCCCCNS(=O)(=O)c3cccc4ccccc34)ccc21 [Compound 1-36] | 92
26 | CC(C)n1c2c(c3cc(NC(=O)CCCCCNS(=O)(=O)c4cccc5ccccc45)ccc31)CCCC2 [Compound 1-9] | 100
27 | CCn1c2ccccc2c2cc(C(=O)NCCCCCCNS(=O)(=O)c3cccc4ccccc34)ccc21 [Compound 1-33] | 82
28 | CC(C)S(=O)(=O)NCCCCCNC(=O)c1ccc2c(c1)c1c(n2CCO)CCCC1 [Compound 1-59] | 93
29 | CCOc1c(C(=O)NCCCCCNS(=O)(=O)c2cccc3ccccc23)ccc2c1c1c(n2CC)CCCC1 [Compound 1-40] | 91
30 | CCCCCCCCS(=O)(=O)NCCCCCNC(=O)c1ccc2c(c1)c1ccccc1n2CC [Compound 1-12] | 77
31 | CC(C)n1c2c(c3cc(NC(=O)N(C)CCc4ccncc4)cc(F)c31)CCCC2 [Compound 12-2] | 96
32 | CCn1c2ccccc2c2cc(NC(=O)CCNS(=O)(=O)c3cccc4ccccc34)ccc21 [Compound 1-4] | 100
33 | COCCn1c2ccccc2c2cc(C(=O)NCCCCCNS(=O)(=O)c3cccc4ccccc34)ccc21 [Compound 1-49] | 91
34 | CCn1c2ccccc2c2cc(C(=O)NCCCCCNS(=O)(=O)c3cccc4ccccc34)ccc21 [Compound 1-32] | 97
35 | CCn1c2ccccc2c2cc(NC(=O)C3CC3)ccc21 [Compound 3-5] | 100
36 | CCn1c2ccccc2c2cc(C(=O)NCCCCCNS(=O)(=O)N(C)C)ccc21 [Compound 1-24] | 98
37 | CCn1c2ccccc2c2cc(C(=O)NCCN(C)CCNS(=O)(=O)c3cccc4ccccc34)ccc21 [Compound 1-30] | 99
38 | CCn1c2ccccc2c2cc(C(=O)NCCNCCNS(=O)(=O)c3cccc4ccccc34)ccc21 [Compound 1-29] | 89
39 | CCn1c2ccccc2c2cc(C(=O)NCCCCCNC(=O)c3cccc4ccccc34)ccc21 [Compound 1-22] | 89
40 | CCn1c2ccccc2c2cc(C(=O)NCCCCCNC(=O)C(C)C)ccc21 [Compound 1-18] | 88
41 | CCn1c2ccccc2c2cc(NC(=O)CCCCNS(=O)(=O)c3cccc4ccccc34)ccc21 [Compound 1-1] | 95

Same assay, conditions: test compound 10 μM; 3H-NPY; membrane of insect cells expressing human Y5 receptor; 4° C., 2 hours; relative to Y5 specific binding in solvent group

Row | SMILES | % Inhibition ratio (10 μM) [%]
42 | CC(C)n1c2c(c3cc(NC(=O)N(C)CCSc4ncc[nH]4)ccc31)CCCC2 [Compound 5-25] | 101
43 | CC(C)n1c2c(c3cc(NC(=O)N4CCC(O)C4)ccc31)CCCC2 (stereo not drawn) [Compound 7-4] | 90
44 | CC(C)n1c2c(c3cc(NC(=O)N(C)CCc4ccccn4)ccc31)CCCC2 [Compound 5-18] | 100
45 | CC(C)n1c2c(c3cc(NC(=O)N4CCCCC4)ccc31)CCCC2 [Compound 7-2] | 99
46 | CC(C)n1c2c(c3cc(NC(=O)N4CCC(CCO)CC4)ccc31)CCCC2 [Compound 7-12] | 94
47 | CC(C)n1c2c(c3cc(NC(=O)N4CCOCC4)ccc31)CCCCC2 [Compound 11-4] | 97
48 | CC(C)n1c2c(c3cc(NC(=O)N(C)CCc4ccccn4)ccc31)CCC2 [Compound 10-2] | 83
49 | CC(C)n1c2c(c3cc(NC(=O)N4CCCCC4CCO)ccc31)CCCC2 (stereo not drawn) [Compound 7-11] | 95
50 | CC(C)n1c2c(c3cc(NC(=O)N4CCSC4)ccc31)CCCC2 [Compound 7-14] | 96
51 | CC(C)n1c2c(c3cc(NC(=O)N4CCCC(CO)C4)ccc31)CCCC2 (stereo not drawn) [Compound 7-10] | 97
52 | CC(C)n1c2c(c3cc(NC(=O)N(C)CCN4CCN(C)CC4)ccc31)CCCC2 [Compound 5-15] | 87
53 | CCCCN(C)C(=O)Nc1ccc2c(c1)c1c(n2C(C)C)CCCC1 [Compound 5-3] | 98
54 | CC(C)n1c2c(c3cc(NC(=O)N4CCNCC4)ccc31)CCCC2 [Compound 7-18] | 92
55 | CC(C)n1c2c(c3cc(NC(=O)N4CCC[C@H]4CO)ccc31)CCCC2 [Compound 7-5] | 100
56 | CC(C)N(C)C(=O)Nc1ccc2c(c1)c1c(n2C(C)C)CCCC1 [Compound 5-2] | 97
57 | CC(C)n1c2c(c3cc(NC(=O)N4CCC(O)CC4)ccc31)CCCC2 [Compound 7-7] | 97

Row | SMILES | % Inhibition ratio (10 μM) [%]
58 | CC(C)n1c2c(c3cc(NC(=O)N4CCCCC4CO)ccc31)CCCC2 (stereo not drawn) [Compound 7-9] | 91
59 | CC(C)n1c2c(c3cc(NC(=O)N4CCN(c5ccccn5)CC4)ccc31)CCCC2 [Compound 7-20] | 89
60 | CC(C)n1c2c(c3cc(NC(=O)N(C)[C@H]4CC[C@H](O)CC4)ccc31)CCCC2 [Compound 5-12] | 100
61 | CC(C)n1c2c(c3cc(NC(=O)N4CCSCC4)ccc31)CCCC2 [Compound 7-15] | 88
62 | CC(C)n1c2c(c3cc(NC(=O)N4C[C@@H](C)O[C@@H](C)C4)ccc31)CCCC2 [Compound 7-16] | 96
63 | N#CCn1c2c(c3cc(NC(=O)N4CCOCC4)ccc31)CCCC2 [Compound 8-10] | 78
64 | CC(C)n1c2c(c3cc(NC(=O)N4CCOCC4)ccc31)CCCC2 [Compound 8-4] | 98
65 | CC(C)n1c2c(c3cc(NC(=O)N(C)CCc4ccccn4)ccc31)CCCCC2 [Compound 11-2] | 96
66 | CCn1c2c(c3cc(NC(=O)N4CCOCC4)ccc31)CCCC2 [Compound 8-2] | 95
67 | COCCN(CCOC)C(=O)Nc1ccc2c(c1)c1c(n2C(C)C)CCCC1 [Compound 6-3] | 102
68 | CC(C)n1c2c(c3cc(NC(=O)N(C)CCc4cccnc4)ccc31)CCCC2 [Compound 5-19] | 100
69 | CC(C)n1c2c(c3cc(NC(=O)N(C)CCN4CCCCC4)ccc31)CCCC2 [Compound 5-14] | 95
70 | CC(C)n1c2c(c3cc(NC(=O)N(C)CCSc4nnc[nH]4)ccc31)CCCC2 [Compound 5-23] | 98
71 | CC(C)n1c2c(c3cc(NC(=O)N4CCN(C)CC4)ccc31)CCCC2 [Compound 7-19] | 75
72 | CC(C)n1c2c(c3cc(NC(=O)N4CCC(N5CCCCC5)CC4)ccc31)CCCC2 [Compound 7-13] | 83
